# Measured values reported in publication PMC10734772 (Turkish Journal of Chemistry, 2021).
# Legend:
# Format in all cases: cell-based
# K562 = experiment: MTT assay, K562 cells; conditions: Homo sapiens, 24 h, MTT, read-out: Viability rate
# Nalm-6 = experiment: MTT assay, Nalm-6 cells; conditions: Homo sapiens, 24 h, MTT, read-out: Viability rate
# Protocol: After incubation (on the third day), to precipitate leukemia cells, the cell plate was centrifuged at 1500 rpm for 5 min. […] The 50 μl of supernatant was discarded from each well and 100 μl of DMSO was added to dissolve the formazan. Plates were shaken for 45 min to dissolve the dye. Then the optical density of each well was measured by using Thermo VarioSkan Flush Multimode Reader Quantum ST5-1100 at 570 nm wavelength.
# The IC50 values were calculated by using GraphPad Prism. All the data presented as the mean of 6 replicates. […] Statistical analysis was performed using dose-response inhibition, log(inhibitor) vs response-variable slope, least squares (ordinary) fit.
# Molt-4 = experiment: MTT assay, Molt-4 cells; conditions: Homo sapiens, MOLT-4, 24 h, read-out: Viability rate
# Protocol: (§1) K562, Jurkat, Molt-4, and Nalm-6 cell lines were cultured in RPMI-1640 medium (ECM2001, Euroclone), Reh cell line was cultured in DMEM medium (LM-D1111-Biosera) Hek293T cell line was cultured in IMDM medium (AL070A - HiMedia) supplemented with 10% heat-inactivated fetal bovine serum (F7524-Merck & Co., USA,) penicillin and streptomycin (P4333-Sigma Aldrich). K562, Jurkat and Molt-4 cell lines were seeded as 4x10^5/ml, Reh and Nalm-6 cell lines were seeded 5x10^5/ml, Hek293T cell line was seed as 2x10^5/ml. All cells were incubated at 5% CO2 and 37 °C. All cell lines were kindly provided by Dr. M. Sayitoglu and Dr. Ö. Hatirnaz-Ng from Acibadem University.
# (§2) MTT assay is a 3-day test. On the first day, cell count was performed in Bio Rad TC-20 device with the help of trypan blue, each cell line was prepared by diluting to the specified concentrations and seeded in a 96-well plate as 100μL to each well and incubated for 1 day.
# (§3) Each compound was solved in DMSO, their stock solutions (33.3, 10, 5, 1 mM, and 300 μM) were prepared by diluting with the same solvent and they were stored under −20°C when they were not used.
# (§4) On the second day, stock solutions were subsequently diluted to various concentrations (0.3–200 μM) with related medium prior to experiments. Specified concentrations of the compounds were seeded in a 96-well plate as 100μL to each well and incubated for 24 h.
# (§5) After incubation (on the third day), to precipitate leukemia cells, the cell plate was centrifuged at 1500 rpm for 5 min. Then, 100 μL of supernatant was removed from each well carefully and 10 μl of MTT solution (5 mg/mL) was added to each well and incubated at 37 °C for 4 h. The 50 μl of supernatant was discarded from each well and 100 μl of DMSO was added to dissolve the formazan. Plates were shaken for 45 min to dissolve the dye. Then the optical density of each well was measured by using Thermo VarioSkan Flush Multimode Reader Quantum ST5-1100 at 570 nm wavelength.
# (§6) Subsequently, viability rate of the cells at each concentration, as percentage, was determined by following formula (1):
# (§7) Viability rate (%)=100-[(OD(control)-OD(sample))/OD(control)×100].OD=Optical Density
# (§8) The IC50 values were calculated by using GraphPad Prism. All the data presented as the mean of 6 replicates. Results were analyzed and illustrated with Graph Pad Prism (version 5; GraphPad Software, San Diego, CA, USA). Statistical analysis was performed using dose-response inhibition, log(inhibitor) vs response-variable slope, least squares (ordinary) fit.
# (§9) To evaluate in-vitro anti-cancer activity of the newly synthesized compounds, they were tested by using the MTT assay in the BCR-ABL positive leukemic cell line (K562), BCR-ABL negative leukemic cell lines (Nalm-6, Molt-4, Reh and Jurkat), and non-leukemic human embryonic kidney tissue (Hek293T) cell line. […] The viability rate of each concentration was calculated by the formula stated in material and methods, the viability rate results for each cell were presented in Table S2 and Figure S44.
# Reh = experiment: MTT assay, Reh cells; conditions: Homo sapiens, 24 h, read-out: Viability rate
# Protocol: as §1, §2, §3, §4, §5, §6, §7, §8, §9
# Jurkat = experiment: MTT assay, Jurkat cells; conditions: Homo sapiens, 24 h, read-out: Viability rate
# Protocol: as §1, §2, §3, §4, §5, §6, §7, §8, §9
# [1] = MTT assay, Hek293T non-leukemic control cells; conditions: human, Hek293T cells (non-leukemic control cell line), read-out: Viability rate
# Protocol: as §1, §2, §3, §4, §5, §6, §7, §8, §9
# [2] = tested on: K562, Nalm-6, Molt-4, Reh, Jurkat, Hek293T cell lines; experiment: MTT assay, overall judgement over all cell lines; conditions: overall judgement in words; for 6 and 10: on all cell lines, except Reh
# Protocol: as §9
compound,measurement,setting,value
"Cc1ccnc(Nc2cc(NC(=O)c3ccc(CN4CCN(c5ncccn5)CC4)cc3)ccc2C)n1 [Compound 5, N-(4-Methyl-3-((4-methylpyrimidin-2-yl)amino)phenyl)-4-((4-(pyrimidin-2-yl)piperazin-1-yl)methyl)benzamide]",viability at 1 µM,"K562; K562, 1 μM",103.1 ± 0.07%
same,viability at 3 µM,"K562; K562, 3 μM",98.7 ± 0.08%
same,viability at 5 µM,"K562; K562, 5 μM",99.7 ± 0.06%
same,viability at 10 µM,"K562; K562, 10 μM",97 ± 0.05%
same,viability at 15 µM,"K562; K562, 15 μM",99.5 ± 0.12%
same,viability at 20 µM,"K562; K562, 20 μM",106.5 ± 0.04%
same,viability at 30 µM,"K562; K562, 30 μM",102.7 ± 0.05%
same,viability at 50 µM,"K562; K562, 50 μM",101.6 ± 0.12%
same,viability at 70 µM,"K562; K562, 70 μM",100.1 ± 0.08%
same,viability at 100 µM,"K562; K562, 100 μM",104.6 ± 0.1%
same,viability at 150 µM,"K562; K562, 150 μM",104.3 ± 0.1%
same,viability at 200 µM,"K562; K562, 200 μM",102.1 ± 0.14%
same,viability at 1 µM,"Nalm-6; Nalm-6, 1 μM",95.8 ± 0.01%
same,viability at 3 µM,"Nalm-6; Nalm-6, 3 μM",95 ± 0.02%
same,viability at 5 µM,"Nalm-6; Nalm-6, 5 μM",92.4 ± 0.03%
same,viability at 10 µM,"Nalm-6; Nalm-6, 10 μM",90.1 ± 0.02%
same,viability at 15 µM,"Nalm-6; Nalm-6, 15 μM",84.1 ± 0.01%
same,viability at 20 µM,"Nalm-6; Nalm-6, 20 μM",80.1 ± 0.02%
same,viability at 30 µM,"Nalm-6; Nalm-6, 30 μM",78.6 ± 0.01%
same,viability at 50 µM,"Nalm-6; Nalm-6, 50 μM",74.1 ± 0.01%
same,viability at 70 µM,"Nalm-6; Nalm-6, 70 μM",71.9 ± 0.01%
same,viability at 100 µM,"Nalm-6; Nalm-6, 100 μM",70.3 ± 0.01%
same,viability at 150 µM,"Nalm-6; Nalm-6, 150 μM",70.2 ± 0.01%
same,viability at 200 µM,"Nalm-6; Nalm-6, 200 μM",70.5 ± 0.01%
same,viability at 1 µM,"Molt-4; Molt-4, 1 μM",95.2 ± 0.08%
same,viability at 3 µM,"Molt-4; Molt-4, 3 μM",84.6 ± 0.04%
same,viability at 5 µM,"Molt-4; Molt-4, 5 μM",85.1 ± 0.11%
same,viability at 10 µM,"Molt-4; Molt-4, 10 μM",84.8 ± 0.03%
same,viability at 15 µM,"Molt-4; Molt-4, 15 μM",84.9 ± 0.11%
same,viability at 20 µM,"Molt-4; Molt-4, 20 μM",85.8 ± 0.03%
same,viability at 30 µM,"Molt-4; Molt-4, 30 μM",85.3 ± 0.06%
same,viability at 50 µM,"Molt-4; Molt-4, 50 μM",86.1 ± 0.11%
same,viability at 70 µM,"Molt-4; Molt-4, 70 μM",84.6 ± 0.05%
same,viability at 100 µM,"Molt-4; Molt-4, 100 μM",83.5 ± 0.12%
same,viability at 150 µM,"Molt-4; Molt-4, 150 μM",87.1 ± 0.09%
same,viability at 200 µM,"Molt-4; Molt-4, 200 μM",86.6 ± 0.08%
same,viability at 1 µM,Reh; 1 μM,96.6 ± 0.01%
same,viability at 3 µM,Reh; 3 μM,95.8 ± 0.05%
same,viability at 5 µM,Reh; 5 μM,95.7 ± 0.03%
same,viability at 10 µM,Reh; 10 μM,95.1 ± 0.04%
same,viability at 15 µM,Reh; 15 μM,94.9 ± 0.04%
same,viability at 20 µM,Reh; 20 μM,90.2 ± 0.03%
same,viability at 30 µM,Reh; 30 μM,87.9 ± 0.04%
same,viability at 50 µM,Reh; 50 μM,85.5 ± 0.05%
same,viability at 70 µM,Reh; 70 μM,81.4 ± 0.01%
same,viability at 100 µM,Reh; 100 μM,79.1 ± 0.01%
same,viability at 150 µM,Reh; 150 μM,79.1 ± 0.02%
same,viability at 200 µM,Reh; 200 μM,74%
same,viability at 3 µM,Jurkat; 3 μM,90.1 ± 0.11%
same,viability at 5 µM,Jurkat; 5 μM,89.7 ± 0.09%
same,viability at 10 µM,Jurkat; 10 μM,89.6 ± 0.15%
same,viability at 15 µM,Jurkat; 15 μM,88.8 ± 0.09%
same,viability at 20 µM,Jurkat; 20 μM,88.8 ± 0.08%
same,viability at 30 µM,Jurkat; 30 μM,88.1 ± 0.1%
same,viability at 50 µM,Jurkat; 50 μM,83.4 ± 0.12%
same,viability at 70 µM,Jurkat; 70 μM,82.5 ± 0.07%
same,viability at 100 µM,Jurkat; 100 μM,80.8 ± 0.13%
same,viability at 150 µM,Jurkat; 150 μM,78.7 ± 0.12%
same,viability at 200 µM,Jurkat; 200 μM,66.5 ± 0.05%
same,"viability at 24 h, 3 µM",[1]; 3 μM,66.5 ± 0.11%
same,"viability at 24 h, 5 µM",[1]; 5 μM,61 ± 0.13%
same,"viability at 24 h, 10 µM",[1]; 10 μM,59.4 ± 0.08%
same,"viability at 24 h, 15 µM",[1]; 15 μM,56.6 ± 0.1%
same,"viability at 24 h, 20 µM",[1]; 20 μM,56.2 ± 0.03%
same,"viability at 24 h, 30 µM",[1]; 30 μM,55.8 ± 0.05%
same,"viability at 24 h, 50 µM",[1]; 50 μM,54.1 ± 0.04%
same,"viability at 24 h, 70 µM",[1]; 70 μM,52.7 ± 0.03%
same,"viability at 24 h, 100 µM",[1]; 100 μM,50.5 ± 0.02%
same,"viability at 24 h, 150 µM",[1]; 150 μM,50.4 ± 0.02%
same,"viability at 24 h, 200 µM",[1]; 200 μM,50 ± 0.04%
same,anticancer activity according to MTT assay results,[2],very poor activity
